Reference: the OPERA property sets (Mansouri et al. 2018)

| SMILES | boiling point [°C] | melting point [°C] | log10 Koc (L/kg) | log10 vapour pressure (mmHg) | ready biodegradability | log10 Koa | logP | log10 Henry constant (atm·m³/mol) |
| --- | --- | --- | --- | --- | --- | --- | --- | --- |
| CCCC(C)C(C)(C)CC (centres undefined) | 162 | – | – | – | – | – | – | – |
| CC1(O)CCC(C(C)(C)O)CC1 (centres undefined) | – | 158 | – | – | – | – | – | – |
| Cc1c(C)c2ccccc2c2ccccc12 | – | 144 | – | – | – | – | – | – |
| CCNc1nc(NC(C)(C)C)nc(SC)n1 | – | 104 | 2.85 | -5.77 | not readily biodegradable | – | – | – |
| Oc1nc2ccccc2s1 | 360 | 139 | – | – | – | – | – | – |
| CC(O)C(C)(C)CO (centres undefined) | 208 | – | – | – | – | – | – | – |
| CC(C)(Cl)Cl | 69.3 | -33.8 | – | – | – | – | – | – |
| CC(C)=CCCC(C)=CC(=O)O | 250 | – | – | – | – | – | – | – |
| ClC1=C(Cl)C2(Cl)C3C(Cl)C(Cl)C(Cl)C3C1(Cl)C2(Cl)Cl (centres undefined) | – | – | – | -6.02 | – | 9.43 | – | – |
| COCCOCCOCCOCCOC | 275 | – | – | – | – | – | – | – |
| Clc1ccc2c(Cl)cccc2c1Cl | – | – | – | – | – | 7.5 | – | – |
| Oc1ccc(N=Nc2ccccc2)c(O)c1 | – | 170 | – | – | – | – | – | – |
| CC(C)OC(=O)OC(C)C | 147 | – | – | – | – | – | – | – |
| C[C@]12C/C(=C/O)C(=O)C[C@@H]1CC[C@@H]1[C@@H]2CC[C@@]2(C)[C@H]1CC[C@]2(C)O | – | 179 | – | – | – | – | – | – |
| C=C1CCO[C@]2([C@H](O)[C@@](C)(O)CO)NC(=O)[C@@]1(O)NC2=O | – | 188 | – | – | – | – | – | – |
| CC(C)CC(=O)C1C(=O)c2ccccc2C1=O | – | 68.5 | – | – | – | – | – | – |
| Nc1c(Cl)cccc1C(=O)O | – | 190 | – | – | – | – | – | – |
| CC(C)CN(C)C | 80.5 | – | – | – | – | – | – | – |
| O=C1CCC(N2C(=O)c3ccccc3C2=O)C(=O)N1 (centres undefined) | – | 270 | – | – | – | – | – | – |
| CC(O)COCC(C)O (centres undefined) | 233 | – | – | – | not readily biodegradable | – | – | – |
| CCc1oc2ccccc2c1C(=O)c1ccc(O)cc1 | – | 124 | – | – | – | – | – | – |
| CC(=O)c1cccc(C#N)c1 | – | 99 | – | – | – | – | – | – |
| c1cncc(-c2ccnc(-c3cccnc3)c2)c1 | – | 148 | – | – | – | – | – | – |
| C=CC(C)CCC (centres undefined) | 83.9 | – | – | 1.92 | – | – | – | – |
| Cc1nnc(C)s1 | 202 | 65 | – | – | – | – | – | – |
| COc1ccc2c(c1)CCCN2 | 284 | 42.5 | – | – | – | – | – | – |

| SMILES | boiling point [°C] | melting point [°C] | log10 Koc (L/kg) | log10 vapour pressure (mmHg) | ready biodegradability | log10 Koa | logP | log10 Henry constant (atm·m³/mol) |
| --- | --- | --- | --- | --- | --- | --- | --- | --- |
| O=C1c2ccccc2C(=O)c2c(Br)cccc21 | – | 186 | – | – | – | – | – | – |
| CCCCOC(=O)C(Cl)Cl | 194 | – | – | – | – | – | – | – |
| Oc1ccc(NCc2ccccc2)cc1 | – | 88 | – | – | – | – | – | – |
| O=CC=Cc1ccco1 | – | 54 | – | – | – | – | – | – |
| Brc1cc(Br)c(Oc2c(Br)cc(Br)c(Br)c2Br)cc1Br | – | – | – | – | – | – | 8.27 | – |
| CC(C)ON=O | 40 | – | – | – | – | – | – | – |
| O=C1c2ccccc2-c2ccc3c4ccc5c6c(ccc(c7ccc1c2c73)c64)C(=O)c1ccccc1-5 | – | 492 | – | – | – | – | – | – |
| Cc1c(Br)cc(Br)c(O)c1Br | – | 84 | – | – | – | – | – | – |
| CSSC | 110 | -85 | – | 1.46 | not readily biodegradable | – | – | -2.92 |
| C[C@H](N[C@@H](C)c1ccccc1)c1ccccc1 | 296 | – | – | – | – | – | – | – |
| S=C1SCN(Cc2ccccc2)CN1Cc1ccccc1 | – | 102 | – | – | – | – | – | – |
| OC[C@H]1O[C@H](O[C@]2(CCl)O[C@H](CCl)[C@@H](O)[C@@H]2O)[C@H](O)[C@@H](O)[C@H]1Cl | – | 130 | – | – | – | – | – | – |
| CCN(Cc1ccc(Cl)nc1)C(=C[N+](=O)[O-])NC | – | 82.8 | – | – | – | – | – | – |
| Sc1nc2ccccc2s1 | – | 181 | 2.25 | – | readily biodegradable | – | – | – |
| O=C1CCCCO1 | 219 | -12.5 | – | – | – | – | – | – |
| Oc1ccc2ccccc2c1-c1c(O)ccc2ccccc12 | – | 216 | – | – | – | – | – | – |
| CCCCCCCCCCN | 220 | 17 | – | -1 | readily biodegradable | – | – | – |
| c1ccc(N=NNc2ccccc2)cc1 | – | 98 | – | -4.72 | – | – | – | – |
| N#Cc1cccnc1 | 207 | 51 | 1.56 | -0.529 | not readily biodegradable | – | – | -6.56 |
| ICCCCI | – | 5.8 | – | – | – | – | – | – |
| NC(=O)CN1Cc2ccccc2OC1=O | – | 204 | – | – | – | – | – | – |
| Cc1cc(=O)nc(C(C)C)[nH]1 | – | 173 | – | – | not readily biodegradable | – | – | – |
| CCOC(=O)CCCl | 162 | – | – | – | – | – | – | – |
| CCCCCCC(C)OC(=O)COc1nc(F)c(Cl)c(N)c1Cl (centres undefined) | – | 59 | – | -8 | – | – | – | – |
| C=CCNC(N)=S | – | 78 | – | – | – | – | – | – |
